Laboratory results taken from US20230341404A1, “TARGETING STROMA-CANCER INTERACTIONS IN CANCER” (The Regents of the University of California, priority 2022, published 2023).
Residues, ends and D or L forms follow the SMILES beside them. *: point of attachment. Cbz = O=C(OCc1ccccc1)*

Experiments:
PDAC cells = assay: cell viability assay (Cell Counting Kit-8) on wild-type or R/R ECM; assay type: cell-based, mouse and human; details: LG medium
Description: Cells were plated in 96-well plates coated with or without ECM at a density of 3,000 cells (MIA, 1305) or 1,500 cells (KPC or KC) per well and incubated overnight before treatment. 7rh (500 nM), ML120B (10 μM), EIPA (10.5 μM), IPI549 (600 nM), MBQ-167 (500 nM), MRT68921 (600 nM) or ML385 (10 μM), or their combinations, were added to the wells in the presence of complete medium (CM), LG medium or LQ medium for 72 h. Cell viability was determined with a Cell Counting Kit-8 assay (Glpbio). Optical density was read at 450 nm and analysed using a microplate reader with SoftMax 6.5 software (FilterMax F5, Molecular Devices). For all experiments, the medium was replaced every 24 h.

KPC or KC cells [1] = assay: uptake of [3H] from [3H]-proline-labelled ECM; assay type: cell-based, mouse; details: LG medium, 24 h
Description: To assess the effects of Col I on metabolism, Applicant labeled wild-type and R/R fibroblasts with [^3H]-proline or [U-^13C]-glutamine for five days, during which period the cells coated the plates with Col I-containing ECM. After decellularization, KPC or KC cells and variants thereof were plated and cultured for 24 h in LG medium. The uptake of [^3H] in cells plated on wild-type ECM was dependent on macropinocytosis, as indicated by sensitivity to macropinocytosis inhibitors (EIPA (an NHE1 inhibitor), IPI549 (a PI3Kγ inhibitor) or MBQ-167 (a CDC42 and RAC inhibitor)) and to the knockdown of NHE 1 or SDC1, and enhancement by the ULK1 inhibitor MRT68921 (MRT)^11.
Wild-type or R/R fibroblasts were seeded on 6, 12 or 96-well plates. One day after plating, cells were switched into DMEM (with pyruvate) with 10% dialysed FBS supplemented with or without 500 μM [^3H]-proline or [U-^[…]]-glutamine and 100 μM vitamin C. Cells were cultured for five days with renewal of the medium every 24 h. Then fibroblasts were removed by washing in 1 ml or 500 μl or 100 μl per well PBS with 0.5% (v/v) Triton X-100 and 20 mM NH4OH. The ECM was washed five times with PBS before cancer cell plating. The following day, cancer cells were switched into the indicated medium for 24 or 72 h.

KPC cells = assay: intrasplenic PDAC cell implantation (liver tumours); assay type: in vivo, mouse; details: 10 mg kg^−1 EIPA intraperitoneal every other day
Description: FIGS. 14A-14J: Effect of macropinocytosis and mitochondria on Col I-controlled PDAC cell growth. FIG. 14A, Bromodeoxyuridine (BrdU) incorporation into KPC cells plated on ECM mixtures produced by R/R and WT fibroblasts (R:W). Scale bars, 10 μm. FIG. 14B, FIG. 14C, Paren. and IKKα^KD KPC (FIG. 14B) or KC (FIG. 14C) cells were plated −/+ WT or R/R ECM and incubated in LG −/+ indicated reagents. Viable cells were measured after 3 days and depicted relative to untreated plastic-plated Paren. cells. (FIG. 14C). IKKα KD efficiency is shown on the right (FIG. 14B). FIGS. D, E, Viable 1305 (FIG. 14D) or MIA PaCa-2 (FIG. 14E) cells plated as above and incubated in LG −/+ EIPA. f, Viable Paren. and E79Q KPC cells plated, treated, and presented as above. […] Total viable cells were measured as above and are presented relative to the untreated cells. FIG. 14H, Mitochondrial ATP production calculated from FIG. 6B. […] Quantification of the SR positive area is shown on the left. […] Statistical significance determined by two-tailed t-test. […]
Three-month-old Col I^WT or Col I^r/r mice were treated with or without an oral gavage of 25% CCl4 in corn oil twice a week for two weeks. […] Mice were analysed 14 days after treatment with or without 10 mg kg^−1 EIPA (Sigma) by intraperitoneal injection every other day.

DDR1 = assay: immunoblot of DDR1 in KPC cells plated on wild-type or R/R ECM; assay type: cell-based, mouse; details: LG medium, 24 h
Description: FIGS. 4A-4G: The Col I—DDR1—NRF2 axis controls macropinocytosis and mitochondrial biogenesis. FIG. 4A, Representative images and quantification of mitochondria and macropinocytosis in TMR-DEX-incubated parental and variant KPC cells grown on wild-type ECM. FIG. 4B, Immunoblot analysis of the indicated proteins in KPC cells grown on plastic or wild-type or R/R ECM and incubated in LG or LQ medium for 24 h. The effects of wild-type and R/R ECM on DDR1 signaling are summarized on the right. mito., mitochondria; pDDR1, phosphorylated DDR1. FIG. 4C, Representative images and quantification of mitochondria and macropinocytosis in TMR-DEX-incubated parental and NRF2^E79Q (E79Q) KPC cells plated on wild-type or R/R ECM in LG medium with or without 7rh or ML120B for 24 h. […] Statistical significance determined by two-tailed t-test. […]
The expression and function of DDR1 vary in different cancer stages and types^18-21. […] Unlike DDR1 in triple-negative breast cancer (TNBC)^20, no shedding of the DDR1 extracellular domain was detected (FIG. 12F). […]
Preparation of protein samples from cells and tissues, immunoblotting and immunoprecipitation were performed as before^10, 30. Immunoreactive bands were detected by an automatic X-ray film processor or a KwikQuant Imager.

KPC or KC cells [2] = assay: luminescence ATP detection assay; assay type: cell-based, mouse; details: cells cultured on wild-type ECM, 24 h
Description: KPC or KC cells were grown on 96-well plates coated with or without the indicated ECM in the presence of 100 μl CM or LG medium with or without EIPA (10.5 μM), MBQ-167 (500 nM), MRT68921 (600 nM) or their combinations for 24 h. Then the cell number was measured. Intracellular ATP was determined with a luminescence ATP detection assay system (PerkinElmer) according to the manufacturer's protocol. Finally, luminescence was measured and normalized to cell number.

KPC or KC cells [3] = assay: L-amino acid assay; assay type: cell-based, mouse; details: cells cultured on wild-type ECM, LG medium, 24 h
Description: KPC or KC cells were grown on six-well plates coated with or without the indicated ECM in the presence of […] LG medium with or without EIPA (10.5 μM), MRT68921 (600 nM) or their combinations for 24 h. Total amounts of free 1-amino acids (except for glycine) were measured using an L-Amino Acid Assay Kit (Colorimetric, […]) according to the manufacturer's protocol. The concentration of 1-amino acids was calculated within samples by comparing the sample optical density to the standard curve and normalized to cell number.

[4] = IKKα^KD cells versus parental cells
[5] = parental cells on wild-type ECM, 7rh 500 nM, ML120B 10 μM, ML385 10 μM, EIPA 10.5 μM, IPI549 600 nM, MBQ-167 500 nM

Row | Structure (SMILES) | cell growth (viable cells) (PDAC cells; [4]) | cell growth (viable cells) (PDAC cells; parental cells on R/R ECM) | cell growth (viable cells) (PDAC cells; [5]) | uptake of [3H] (KPC or KC cells [1]; cells plated on R/R ECM) | uptake of [3H] (KPC or KC cells [1]; cells plated on wild-type ECM) | also measured
1 | CCn1c2ccccc2c2cc(-n3nncc3-c3ccccc3)ccc21 (racemic) [MBQ-167] | more sensitive | did not decrease the low growth | decreased growth on wild-type ECM | unaffected | sensitivity | –
2 | CCN(c1nc(N)c(C(=O)NC(=N)N)nc1Cl)C(C)C [EIPA] | more sensitive | did not decrease the low growth | decreased growth on wild-type ECM | unaffected | sensitivity | tumour growth (KPC cells; Col I^r/r livers): had little effect; tumour growth (KPC cells; wild-type livers): inhibited tumour growth
3 | C[C@H](NC(=O)c1c(N)nn2cccnc12)c1cc2cccc(C#Cc3cnn(C)c3)c2c(=O)n1-c1ccccc1 [IPI549] | more sensitive | did not decrease the low growth | decreased growth on wild-type ECM | unaffected | sensitivity | –
4 | CC(C)C[C@@H](C=O)NC(=O)[C@H](CC(C)C)NC(=O)[C@H](CC(C)C)NC(=O)OCc1ccccc1 [MG132] (Cbz-Leu-Leu-Leu-aldehyde) | – | – | – | – | – | DDR1 expression (DDR1): rescued DDR1 expression
5 | COc1c(Cl)cc2c([nH]c3cnccc32)c1NC(=O)c1cccnc1C [ML120B] | – | did not decrease the low growth | decreased growth on wild-type ECM | – | – | cell growth (viable cells) (PDAC cells; NRF2(E79Q)-expressing cells): resistant
6 | Cc1ccccc1C(=O)N1CCc2cc(-c3nc(NC(=O)Cc4ccc5c(c4)OCO5)sc3C)ccc21 [ML385] | – | did not decrease the low growth | decreased growth on wild-type ECM | – | – | –
7 | CN1CCc2cc(Nc3ncc(C4CC4)c(NCCCNC(=O)C4CCC4)n3)ccc2C1 [MRT68921] | – | – | – | – | enhancement | levels of ATP (KPC or KC cells [2]): further increased; amino acid content (KPC or KC cells [3]): further increased
